Here are results for 18 compounds from ChEMBL document CHEMBL1128962, “Serotoninergic 5-HT3 and 5-HT4 receptor activities of dihydrobenzofuran carboxylic acid derivatives” (Bioorg Med Chem Lett, 1996).

In assay [1] the target is T1, Serotonin 3 (5-HT3) receptor (Rattus norvegicus, UniProt P35563+Q9JJ16).
T1 sequence (P35563 whole entry): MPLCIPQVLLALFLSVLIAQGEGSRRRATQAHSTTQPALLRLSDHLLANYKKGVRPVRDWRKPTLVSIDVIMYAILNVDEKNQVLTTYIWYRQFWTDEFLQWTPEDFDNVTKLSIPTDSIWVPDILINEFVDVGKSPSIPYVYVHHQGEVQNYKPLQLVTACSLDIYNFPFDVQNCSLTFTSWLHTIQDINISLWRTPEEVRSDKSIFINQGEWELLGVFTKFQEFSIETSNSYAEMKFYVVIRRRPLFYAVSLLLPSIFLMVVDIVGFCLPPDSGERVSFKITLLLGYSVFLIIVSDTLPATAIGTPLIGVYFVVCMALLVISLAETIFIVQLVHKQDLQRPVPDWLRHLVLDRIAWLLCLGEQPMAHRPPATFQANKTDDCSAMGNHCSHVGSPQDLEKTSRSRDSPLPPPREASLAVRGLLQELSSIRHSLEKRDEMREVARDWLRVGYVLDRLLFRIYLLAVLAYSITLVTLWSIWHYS
T1 sequence (Q9JJ16 whole entry): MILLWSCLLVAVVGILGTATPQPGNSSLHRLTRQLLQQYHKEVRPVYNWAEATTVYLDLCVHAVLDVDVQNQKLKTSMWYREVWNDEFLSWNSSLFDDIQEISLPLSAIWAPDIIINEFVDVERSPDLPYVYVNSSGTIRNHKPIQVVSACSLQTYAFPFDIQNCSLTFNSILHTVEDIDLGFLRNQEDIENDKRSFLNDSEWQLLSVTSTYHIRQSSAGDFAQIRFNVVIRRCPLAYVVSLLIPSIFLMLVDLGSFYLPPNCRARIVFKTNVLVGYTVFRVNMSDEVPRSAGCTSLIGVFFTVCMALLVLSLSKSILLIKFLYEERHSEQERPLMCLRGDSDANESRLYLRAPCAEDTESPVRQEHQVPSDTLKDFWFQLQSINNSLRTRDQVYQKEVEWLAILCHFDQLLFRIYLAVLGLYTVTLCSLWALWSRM
In words: Binding affinity at 5-hydroxytryptamine 3 receptor in rat entorhinal cortex by [3H]BRL-43694 displacement. It counts as tissue-based.

Assay [2] addresses T2, 5-hydroxytryptamine receptor 4 (Rattus norvegicus, UniProt Q62758). In words: Binding affinity at 5-hydroxytryptamine 4 receptor in rat striatum by [3H]GR-113808 displacement. It counts as tissue-based.
For assay [3], the target named is T2, 5-hydroxytryptamine receptor 4. In words: In vitro relaxation of carbachol pre-contracted rat oesophageal TMM. Format: functional.
The target in assay [4] is Serotonin 3 (5-HT3) receptor (Homo sapiens) (UniProt P46098+A5X5Y0+O95264+Q70Z44+Q8WXA8). In words: In vitro 5-hydroxytryptamine 3 receptor activity in guinea pig ileum. It counts as tissue-based. As to conditions: Cavia porcellus, target entry is the homologue from another species.
Assay [5] addresses 5-hydroxytryptamine receptor 4 (Rattus norvegicus) (UniProt Q62758). In words: In vitro 5-hydroxytryptamine 4 receptor activity by using carbachol-precontracted esophageal tunica muscularis mucosae.
Assay [6] has the same target. In words: In vitro 5-hydroxytryptamine 4 receptor activity by using carbachol-precontracted esophageal tunica muscularis mucosae; No activity up to 104M concentration.

T2 sequence (Q62758 whole entry): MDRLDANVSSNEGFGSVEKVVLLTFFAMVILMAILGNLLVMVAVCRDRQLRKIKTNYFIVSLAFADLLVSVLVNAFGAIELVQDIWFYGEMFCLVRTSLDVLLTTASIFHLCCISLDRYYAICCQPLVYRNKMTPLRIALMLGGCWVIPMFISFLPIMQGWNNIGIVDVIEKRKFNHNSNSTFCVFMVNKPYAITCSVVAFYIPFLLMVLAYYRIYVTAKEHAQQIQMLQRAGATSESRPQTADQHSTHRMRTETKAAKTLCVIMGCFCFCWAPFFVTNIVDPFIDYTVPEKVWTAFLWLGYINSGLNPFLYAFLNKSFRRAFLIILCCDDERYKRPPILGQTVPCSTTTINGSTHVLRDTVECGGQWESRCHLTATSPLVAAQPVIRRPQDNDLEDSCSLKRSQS
Chain of 5-hydroxytryptamine receptor 4 (Rattus norvegicus) (Q62758 whole entry): as above

With `CCN(CC)CCNC(=O)c1cc(Cl)c(N)cc1OC` [METOCLOPRAMIDE], the Ki (as a rule, a dissociation constant, usually derived from enzyme kinetics or from competition with a known ligand) in assay [1] was 490 nM.
In the case of `Nc1c(Cl)cc(C(=O)OCCCN2CCCCC2)c2c1CCO2`, the Ki is 4.5 nM in assay [2] and 1180 nM in assay [1]. In addition, the EC50 (in general, the concentration giving half of the maximal effect) in assay [3] was 7.43 nM.
Take `Nc1c(Cl)cc(C(=O)N[C@H]2CN3CCC2CC3)c2c1CCO2`: the inhibition constant (Ki) amounted to 115 nM in assay [2] and 1 nM in assay [1]. Further, the Kb in assay [4] is 33.9 nM. In assay [3], the EC50 amounted to 195 nM.
Turning to `O=C(N[C@H]1CN2CCC1CC2)c1cccc2c1OCC2`, the Kb in assay [5] was more than 1000 nM. The Ki in assay [2] was more than 10000 nM; in assay [1], 14 nM. The compound also came in with an EC50 in assay [3] of more than 1000 nM.
As to `Nc1c(Cl)cc(C(=O)OCCN2CCCCC2)c2c1CCO2`, the figures for the Ki in assay [2] and in assay [1] were 0.94 nM and 110 nM, respectively. In assay [3], the response was half-maximal at 2.02 nM (EC50).
For the compound `Nc1c(Cl)cc(C(=O)NCCN2CCCCC2)c2c1CCO2`, the Ki in assay [2] stood at 41 nM; in assay [1] it was 380 nM. In addition, the EC50 in assay [3] is 35.4 nM.
With `O=C(N[C@H]1CN2CCC1CC2)c1cc(Cl)cc2c1OCC2`, the Kb in assay [5] was more than 1000 nM; in assay [4], 38 nM. Further, the Ki in assay [2] came out at 280 nM; in assay [1], 1 nM. Moreover, the EC50 in assay [3] is more than 1000 nM.
`O=C(N[C@@H]1CN2CCC1CC2)c1cccc2c1OCC2`: the Kb was more than 1000 nM in assay [5] and 40.7 nM in assay [4]. Further, the Ki in assay [2] was more than 1000 nM; in assay [1] it was 1.4 nM. For the same compound, in assay [3], the EC50 is more than 10000 nM.
Take `CCCCN1CCC(CNC(=O)c2cc(Cl)c(N)c3c2OCC3)CC1`: the Ki was 1.9 nM in assay [2] and 57 nM in assay [1]. Moreover, the EC50 in assay [3] came out at 4.49 nM.
In the case of `Nc1c(Cl)cc(C(=O)N[C@@H]2CN3CCC2CC3)c2c1CCO2`, the figures for the Kb in assay [6] and in assay [4] were 18.6 nM and 3.8 nM, respectively. Further, the values for the Ki in assay [2] and in assay [1] were 17 nM and 0.1 nM, respectively. Further, the EC50 in assay [3] was 18.6 nM.
Regarding `CCCC[N+]12CCC(CC1)[C@H](NC(=O)c1cc(Cl)c(N)c3c1OCC3)C2`, the Ki turned out to be 1.9 nM in assay [2] and 73 nM in assay [1]. The compound further registered an EC50 in assay [3] of 8.5 nM.
For `CCCC[N+]12CCC(CC1)[C@@H](NC(=O)c1cc(Cl)c(N)c3c1OCC3)C2` the same measures were 420 nM, 10 nM and 1360 nM.
Turning to `Nc1ccc(C(=O)N[C@@H]2CN3CCC2CC3)c2c1CCO2`, the Kb was more than 100 nM in assay [5] and 44.6 nM in assay [4]. Further, the Ki in assay [2] was more than 1000 nM; in assay [1], 1 nM. Moreover, the EC50 in assay [3] was more than 10000 nM.
As for `Nc1c(Cl)cc(C(=O)NCCCN2CCCCC2)c2c1CCO2`, the Ki was 9.6 nM in assay [2] and more than 10000 nM in assay [1]. The response in assay [3] was half-maximal at 19.3 nM (EC50).
On to `COc1cc(N)c(Cl)cc1C(=O)N[C@@H]1CN2CCC1CC2`, for which the inhibition constant Ki turned out to be 131 nM in assay [2] and 0.11 nM in assay [1]. The EC50 in assay [3] was found to be 55.9 nM.
Take `CCCCN1CCC(COC(=O)c2cc(Cl)c(N)c3c2OCC3)CC1`: the Ki in assay [2] stood at 0.13 nM; in assay [1] it was 250 nM. In assay [3], this compound returned an EC50 of 1.85 nM.
Turning to `Nc1ccc(C(=O)N[C@H]2CN3CCC2CC3)c2c1CCO2`, the Kb in assay [5] was more than 1000 nM. The Ki in assay [2] is more than 1000 nM; in assay [1] it was 20 nM. This compound also came in with an EC50 in assay [3] of more than 1000 nM.
As to `O=C(N[C@@H]1CN2CCC1CC2)c1cc(Cl)cc2c1OCC2`, the Kb in assay [5] was more than 100 nM; in assay [4], 21.8 nM. Also, the Ki in assay [2] came out at 170 nM; in assay [1] it was 1 nM. Moreover, the EC50 in assay [3] is more than 10000 nM.
